The record followed here is patent publication US8937078B2, “Quinazolinones as prolyl hydroxylase inhibitors” (Janssen Pharmaceutica NV, priority 2009, dated 2015).

The subject of experiment [1] is Hep-3B cells. In words: Cellular assay: erythropoietin secretion in Hep-3B cells. The experiment is classed as cell-based, human. The following applies: Homo sapiens, Hep3B, 100 μM compound, 24 hours, percent of EPO secretion relative to assay control compound 7-[(4-Chloro-phenyl)-(5-methyl-isoxazol-3-ylamino)-methyl]-quinolin-8-ol, read-out: Cellular % EPO Stimulation. As to the method: Hep-3B cells (ATCC, Manassas, Va.) were plated in 96-well plates at 20,000 cells per well in 100 μl of DMEM containing 10% fetal bovine serum, 1% non-essential amino acids, 50 IU/mL of penicillin and 50 μg/mL of streptomycin (all cell culture reagents from Invitrogen, Carlsbad, Calif.). Twenty-four hours after plating, compounds were added and incubated for an additional 24 hours. All compounds were tested under saturating conditions with final compound concentrations at 100 μM. Fifty microliters of the supernatant was then transferred to a human Hypoxia assay kit (Meso-Scale Discovery, Gaithersburg, Md.). Erythropoietin in the supernatant was detected according to the manufacturer's instructions as follows. EPO detection plates were blocked with 3% BSA in PBS overnight and 50 μl of the supernatant was incubated at room temperature in an orbital shaker for 2 h. Twenty-five microliters of 0.5 μg/ml anti-EPO detection antibody was added for 2 hours at room temperature in an orbital shaker. After 3 washes in PBS, 150 μl of 1× read buffer is added and the plate is then read on the MSD SECTOR instrument.

Experiment [2] deals with T1, human PHD2 (PHD2181-417) (Homo sapiens, UniProt Q9GZT9).
T1 construct: Smt (SUMO) tag (cleaved yes); made in house; host or cells: E. coli BL21 (pBAD vector)
T1 sequence (Q9GZT9 181-417): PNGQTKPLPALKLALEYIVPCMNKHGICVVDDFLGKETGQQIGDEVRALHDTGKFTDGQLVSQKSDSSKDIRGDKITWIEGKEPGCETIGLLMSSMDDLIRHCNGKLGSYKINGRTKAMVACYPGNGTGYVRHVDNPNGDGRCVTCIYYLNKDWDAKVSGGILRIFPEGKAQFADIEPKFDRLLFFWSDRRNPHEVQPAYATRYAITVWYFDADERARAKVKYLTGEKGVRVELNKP
In words: PHD enzymatic assay ([14C]-succinic acid production). Format: biochemical. As to conditions: PHD2181-417, HIF-1α peptide 10 μM, average of results; read-out: Enzyme pIC50 (converted). The procedure:
Protein production was achieved by expression in BL21 cells grown in Terrific Broth containing 100 μg/ml ampicillin. Cell cultures were inoculated at 37° C. and grown to an OD600 of 0.8. Cultures were induced with 0.1% arabinose and grown overnight at 20° C. with continuous shaking at 225 rpm. Cells were then harvested by centrifugation and stored at −80° C. Cell pellets were suspended in Buffer A (50 mM Tris-HCl pH 7.2, 100 mM NaCl, 100 mM L-arginine, 1 mM TCEP, 0.05% (w/v) NP-40, 50 mM imidazole) followed by the addition of lysozyme and benzonase. Cells were lysed by sonication and the lysate was cleared by centrifugation (15,000 rpm, 90 min, 4° C.). The protein was purified by nickel affinity chromatography using a HisTrap Crude FF column (GE Healthcare). Samples were eluted in Buffer A with a 50-200 mM imidazole gradient. […] The flow-through was then dialyzed into 50 mM MES pH 6.0, 1 mM TCEP, 5 mM NaCl for ion exchange chromatography on a HiTrap SP Cation Exchange column (GE Healthcare). […] Fractions were pooled for further purification by size exclusion chromatography over a Superdex 75 Size Exclusion Column (GE Healthcare). Final protein was concentrated to 4 mg/ml and dialyzed in 10 mM PIPES pH 7.0, 100 mM NaCl, 0.5 mM TCEP.
(10 μM, California Peptide Research Inc., Napa, Calif.), and [5-^14C]-2-oxoglutaric acid (50 mCi/mmol, Moravek Chemicals, Brea, Calif.) in reaction buffer (40 mM Tris-HCl, pH 7.5, 0.4 mg/ml catalase, 0.5 mM DTT, 1 mM ascorbate) for 10 minutes. The reaction was stopped by addition of 50 μl of 70 mM H3PO4 and 50 μl of 500 mM NaH2PO4, pH3.2. Detection of [^14C]-succinic acid was achieved by separating from [5-^14C]-2-oxoglutaric acid by incubating the reaction mixture with 100 μl of 0.16 M DNP prepared in 30% perchloric acid. Next, 50 μl of unlabeled 20 mM 2-oxoglutaric acid/20 mM succinic acid, serving as carrier for the radioactivity, was added to the mixture, and was allowed to proceed for 30 minutes at room temperature. The reaction was then incubated with 50 μl of 1 M 2-oxoglutaric acid for 30 additional minutes at room temperature to precipitate the excess DNP. The reaction was then centrifuged at 2800×g for 10 minutes at room temperature to separate [^14C]-succinic acid in the supernatant from the precipitated [^14C]-dinitrophenylhydrazone. Fractions of the supernatant (400 μl) were counted using a beta counter (Beckman Coulter, Fullerton, Calif.).

In the case of `O=C(O)c1cnn(-c2nc3cc4c(cc3c(=O)[nH]2)OCCO4)c1` [Example 139, 1-(4-Oxo-3,4,7,8-tetrahydro-[1,4]dioxino[2,3-g]quinazolin-2-yl)-1H-pyrazole-4-carboxylic acid], the Emax at 100 µM in experiment [1] came to 15%. For the same compound, the IC50 in experiment [2] is 35.5 nM.

Take `CCc1ccccc1-c1ccc2nc(-n3cc(C(=O)O)cn3)[nH]c(=O)c2c1` [Example 203, 1-[6-(2-Ethyl-phenyl)-4-oxo-3,4-dihydro-quinazolin-2-yl]-1H-pyrazole-4-carboxylic acid]: the Emax at 100 µM in experiment [1] was 77%. Besides, the IC50 in experiment [2] was 31.6 nM.

In the case of `O=C(O)c1cnn(-c2nc3ccc(Oc4cccc5ccccc45)cc3c(=O)[nH]2)c1` [Example 29, 1-[6-(naphthalen-1-yloxy)-4-oxo-3,4-dihydro-quinazolin-2-yl]-1H-pyrazole-4-carboxylic acid], in experiment [1], the Emax at 100 µM was 124%. The IC50 in experiment [2] was 25.1 nM.

For `Cc1cccc2c(=O)[nH]c(-n3cc(C(=O)O)cn3)nc12` [Example 9, 1-(8-Methyl-4-oxo-3,4-dihydro-quinazolin-2-yl)-1H-pyrazole-4-carboxylic acid], the Emax at 100 µM in experiment [1] was determined as 49%. Also, in experiment [2], the IC50 is 79.4 nM.

Turning to `Cc1ccc(CNc2ccc3nc(-n4cc(C(=O)O)cn4)[nH]c(=O)c3c2)cc1` [Example 183, 1-[6-(4-methyl-benzylamino)-4-oxo-3,4-dihydro-quinazolin-2-yl]-1H-pyrazole-4-carboxylic acid], the Emax at 100 µM in experiment [1] was 89%. For the same compound, the IC50 in experiment [2] is 15.8 nM.

Consider `O=C(O)c1cnn(-c2nc3cc(OC(F)(F)F)ccc3c(=O)[nH]2)c1` [Example 148, 1-(4-Oxo-7-trifluoromethoxy-3,4-dihydro-quinazolin-2-yl)-1H-pyrazole-4-carboxylic acid], for which the Emax at 100 µM in experiment [1] was found to be 10%. In experiment [2], the IC50 is 126 nM.

Take `CCC(C)c1ccc2nc(-n3cc(C(=O)O)cn3)[nH]c(=O)c2c1` (stereo not drawn) [Example 120, 1-(6-sec-Butyl-4-oxo-3,4-dihydro-quinazolin-2-yl)-1H-pyrazole-4-carboxylic acid]: the Emax at 100 µM in experiment [1] stood at 68%. For the same compound, the IC50 in experiment [2] is 20 nM.

On to `O=C(O)c1cnn(-c2nc3ccc(Oc4cccc(C(F)(F)F)c4)cc3c(=O)[nH]2)c1` [Example 100, 1-[4-oxo-6-(3-trifluoromethyl-phenoxy)-3,4-dihydro-quinazolin-2-yl]-1H-pyrazole-4-carboxylic acid], for which the Emax at 100 µM in experiment [1] was determined as 55%. Also, the IC50 in experiment [2] was 25.1 nM.

Turning to `O=C(O)c1cnn(-c2nc3cc(C(F)(F)F)ccc3c(=O)[nH]2)c1` [Example 2, 1-(7-Trifluoromethyl-4-oxo-3,4-dihydro-quinazolin-2-yl)-1H-pyrazole-4-carboxylic acid], the Emax at 100 µM in experiment [1] was 21%. Further, in experiment [2], the IC50 was 158 nM.

With `O=C(O)c1cnn(-c2nc3ccc(-c4ccccc4C(F)(F)F)cc3c(=O)[nH]2)c1` [Example 201, 1-[4-Oxo-6-(2-trifluoromethyl-phenyl)-3,4-dihydro-quinazolin-2-yl]-1H-pyrazole-4-carboxylic acid], the Emax at 100 µM in experiment [1] was 78%. Besides, the IC50 in experiment [2] is 25.1 nM.

`CN(C)c1ccc2nc(-n3cc(C(=O)O)cn3)[nH]c(=O)c2c1` [Example 125, 1-(6-Dimethylamino-4-oxo-3,4-dihydro-quinazolin-2-yl)-1H-pyrazole-4-carboxylic acid]: the Emax at 100 µM in experiment [1] came to 19%. The IC50 in experiment [2] was 50.1 nM.

With `Cc1cc2nc(-n3cc(C(=O)O)cn3)[nH]c(=O)c2cc1Oc1c(C)cccc1C` [Example 27, 1-[6-(2,6-Dimethyl-phenoxy)-7-methyl-4-oxo-3,4-dihydro-quinazolin-2-yl]-1H-pyrazole-4-carboxylic acid], the Emax at 100 µM in experiment [1] was found to be 10%. Moreover, the IC50 in experiment [2] is 20 nM.

As to `O=C(O)c1cnn(-c2nc3ccc4c(c3c(=O)[nH]2)CCCC4)c1` [Example 144, 1-(1-Oxo-1,2,7,8,9,10-hexahydro-benzo[f]quinazolin-3-yl)-1H-pyrazole-4-carboxylic acid], the Emax at 100 µM in experiment [1] was 42%. In addition, in experiment [2], the IC50 is 39.8 nM.

In the case of `COc1ccccc1-c1ccc2nc(-n3cc(C(=O)O)cn3)[nH]c(=O)c2c1` [Example 198, 1-[6-(2-Methoxy-phenyl)-4-oxo-3,4-dihydro-quinazolin-2-yl]-1H-pyrazole-4-carboxylic acid], the Emax at 100 µM in experiment [1] worked out at 178%. Further, in experiment [2], the IC50 is 20 nM.

As for `O=C(O)c1cnn(-c2nc3ccc(NC(=O)c4ccccc4)cc3c(=O)[nH]2)c1` [Example 165, 1-(6-Benzoylamino-4-oxo-3,4-dihydro-quinazolin-2-yl)-1H-pyrazole-4-carboxylic acid], the Emax at 100 µM in experiment [1] amounted to 19%. In addition, in experiment [2], the IC50 is 25.1 nM.

`C=C(Cl)c1ccc2nc(-n3cc(C(=O)O)cn3)[nH]c(=O)c2c1` [Example 77, 1-[6-(1-Chloro-vinyl)-4-oxo-3,4-dihydro-quinazolin-2-yl]-1H-pyrazole-4-carboxylic acid]: the Emax at 100 µM in experiment [1] is 27%. Besides, the IC50 in experiment [2] was 25.1 nM.

Regarding `O=C(O)c1cnn(-c2nc3ccccc3c(=O)[nH]2)c1` [Example 126, 1-(4-Oxo-3,4-dihydro-quinazolin-2-yl)-1H-pyrazole-4-carboxylic acid], the Emax at 100 µM in experiment [1] is 9%. The IC50 in experiment [2] was 63.1 nM.

`CN(C)c1ccc2c(=O)[nH]c(-n3cc(C(=O)O)cn3)nc2c1` [Example 150, 1-(7-Dimethylamino-4-oxo-3,4-dihydro-quinazolin-2-yl)-1H-pyrazole-4-carboxylic acid]: in experiment [1], the Emax at 100 µM came out at 24%. For the same compound, in experiment [2], the IC50 is 158 nM.

With `CC(C)Oc1ccc2nc(-n3cc(C(=O)O)cn3)[nH]c(=O)c2c1` [Example 104, 1-(6-isopropoxy-4-oxo-3,4-dihydro-quinazolin-2-yl)-1H-pyrazole-4-carboxylic acid], the Emax at 100 µM in experiment [1] stood at 75%. Further, the IC50 in experiment [2] was 31.6 nM.

Consider `O=C(O)c1cnn(-c2nc3ccc([N+](=O)[O-])cc3c(=O)[nH]2)c1` [Example 164, 1-(6-Nitro-4-oxo-3,4-dihydro-quinazolin-2-yl)-1H-pyrazole-4-carboxylic acid], for which the Emax at 100 µM in experiment [1] stood at 17%. For the same compound, the IC50 in experiment [2] was 25.1 nM.

`O=C(O)c1cnn(-c2nc3cc(Cl)c(Oc4ccc5ccccc5c4)cc3c(=O)[nH]2)c1` [Example 54, 1-[7-Chloro-6-(naphthalen-2-yloxy)-4-oxo-3,4-dihydro-quinazolin-2-yl]-1H-pyrazole-4-carboxylic acid]: the Emax at 100 µM in experiment [1] stood at 90%. Also, the IC50 in experiment [2] was 39.8 nM.

Take `O=C(O)c1cnn(-c2nc3c(Br)cccc3c(=O)[nH]2)c1` [Example 11, 1-(8-Bromo-4-oxo-3,4-dihydro-quinazolin-2-yl)-1H-pyrazole-4-carboxylic acid]: in experiment [1], the Emax at 100 µM is 40%. The IC50 in experiment [2] was 158 nM.

As for `Cc1cc(C)cc(Oc2ccc3nc(-n4cc(C(=O)O)cn4)[nH]c(=O)c3c2)c1` [Example 98, 1-[6-(3,5-dimethyl-phenoxy)-4-oxo-3,4-dihydro-quinazolin-2-yl]-1H-pyrazole-4-carboxylic acid], the Emax at 100 µM in experiment [1] was 85%. For the same compound, the IC50 in experiment [2] is 20 nM.

On to `CC(C)(C)c1ccc2nc(-n3cc(C(=O)O)cn3)[nH]c(=O)c2c1` [Example 19, 1-(6-tert-Butyl-4-oxo-3,4-dihydro-quinazolin-2-yl)-1H-pyrazole-4-carboxylic acid], for which, in experiment [1], the Emax at 100 µM came out at 45%. Further, the IC50 in experiment [2] is 39.8 nM.
